Results reported in patent US20260284051A1, “METHIONINE ADENOSYLTRANSFERASE 2A (MAT2A) INHIBITOR COMBINATIONS AND USES THEREOF” (INSILICO MEDICINE IP LIMITED, priority 2023, published 2026).

Key:
[1] = test system: HCC15 MTAP null xenografts; test: Efficacy study of HCC15 human lung cancer xenograft model in NOD SCID mice; format: in vivo; conditions: for Tumor volume (mm^3) Final (mean): Mean ± SD
Protocol: Efficacy Study of HCC15 Human Lung Cancer Xenograft Model in NOD SCID Mice Methods:
The HCC15 cells were maintained in vitro as a monolayer culture in 90% 1640+10% FBS, 100U/ml penicillin and 100 μg/ml streptomycin at 37° C. in an atmosphere of 5% CO2 in air. The tumor cells were routinely subcultured at a ratio of 1:2 to 1:3 every 3-4 days. Alternatively, Cultures were maintained by addition or replacement of fresh medium. Started cultures at 5×10^5 cells/mL and maintained between 0.5×10^5 and 2×10^6 cells/ml.
NOD SCID mice, female, 6-8 weeks, weighing approximately 20-22 g.
Each mouse were inoculated subcutaneously at the right flank with HCC15 cells in a 0.2 mL mixture of 1640 for tumor development (5×10^6 cells/mouse). Dosing was started when the average tumor size reaches approximately 100-200 mm^3 for the tumor efficacy study with tool and med chem molecules to look for efficacy vs vehicle tumor growth.
(§1) Mean tumor volume at dosing start was approximately 133.09 mm^3, with ten mice randomized to each treatment group. In the HCC15 MTAP null tumor model, mice were dosed orally, once per day (QD) with Vehicle, once per day (QD) with Compound 1 at 3 mg/kg, once per day (QD) with AG270 at 100 mg/kg, mice were intravenous, per week with Docetaxel at 2.5 mg/kg, or Compound 1 combined with Docetaxel at each dose level.

KP4 MTAP null xenografts = test: Efficacy study of KP-4 human pancreatic cancer xenograft model in NOD SCID mice; format: in vivo; conditions: for Tumor volume (mm^3) Final (mean): Mean ± SD
Protocol: Efficacy Study of KP-4 Human Pancreatic Cancer Xenograft Model in NOD SCID Mice
The KP-4 tumor cell line was maintained in vitro as monolayer culture in RPMI 1640 medium supplemented with 10% fetal bovine serum at 37° C. in an atmosphere of […] in air. The tumor cells were routinely subculture weekly by trypsin-EDTA treatment, not to exceed 4-5 passages. The cells growing in an exponential growth phase was harvested and counted for tumor inoculation.
Each mouse was inoculated subcutaneously on the central right flank with KP-4 tumor cells (1×10^7) in 0.1 mL of RPMI-1640 without serum for the tumor development. The treatment started when the mean tumor size reached approximately 100 mm^3. Mice were assigned to groups such that the mean tumor volume is the same for each treatment group and time point.
For routine monitoring, all study animals were monitored for not only tumor growth but also behavior such as mobility, food, and water consumption (by cage side checking only), body weight (BW), eye/hair matting and any other abnormal effect. Any mortality and/or abnormal clinical signs were recorded.
Body weights of all animals were measured twice a week throughout the study. Body weight change, expressed in %, will be calculated using the following formula: BW change (%)=(BWDay x/BWDay 0)×100, where BWDay x is BW on a given day, and BWDay 0 is BW on Day 0 (initiation of treatment).
The measurement of tumor size were conducted twice a week with a caliper and the tumor volume (mm^3) was estimated using the formula: TV=a×b^2/2, where a and b are long and short diameters of a tumor, respectively. The TVs were used for calculation of the tumor growth inhibition (TGI, an indicator of antitumor effectiveness) value using the formula: TGI (%)=[1−(Tn−T0)/(Cn−C0)]×100%, only over the dosing period (dosing days 0 to days n). Where: Tn—is the avg tumor volume at the respective day “n” after dosing throughout treatment period; T0—is the avg tumor volume in the treatment group at day 0 before treatment (immediately before); Cn—avg tumor volume in the control group at the respective day “n” after dosing throughout treatment period; and C0—average tumor volume in the control group at day 0 before treatment (immediately before). The experiment was terminated when the mean tumor volume exceeded 2000 mm^3 or severe body weight loss.
The statistical software GraphPad Prism (version number: 8) was used to analyze the difference in tumor volume between the treatment group and the solvent control group. Two-way ANOVA and Bonferroni multiple tests were used to compare whether there was a significant difference in tumor volume between the vehicle control group and each treatment group during the administration period.
as §1, with “was approximately 102 mm^3, with” for “was approximately 133.09 mm^3, with”, “In the KP4 MTAP null” for “In the HCC15 MTAP null”, “1 at 1, 3 mg/kg,” for “1 at 3 mg/kg,”

[2] = Docetaxel 2.5 mg/kg intravenous per week

## CC(=O)O[C@@]12CO[C@@H]1C[C@H](O)[C@@]1(C)C(=O)[C@H](O)C3=C(C)[C@@H](OC(=O)[C@H](O)[C@@H](NC(=O)OC(C)(C)C)c4ccccc4)C[C@@](O)([C@@H](OC(=O)c4ccccc4)[C@H]21)C3(C)C [Docetaxel, docetaxel, reference compound]
[1]; [2]
  TGI (%): 58.5%
  Tumor volume (mm^3) Final (mean): 515 ± 36 mm^3
KP4 MTAP null xenografts; [2]
  TGI (%): 51.6%
  Tumor volume (mm^3) Final (mean): 1,159 ± 129 mm^3

## AG270 [reference compound]
[1]; AG270 100 mg/kg orally QD, 100 mg/kg
  TGI (%): 55.3%
[1]; AG270 100 mg/kg orally QD
  Tumor volume (mm^3) Final (mean): 544 ± 30 mm^3
KP4 MTAP null xenografts; AG270 100 mg/kg orally QD
  TGI (%): 55.7%
  Tumor volume (mm^3) Final (mean): 1,070 ± 132 mm^3
